Experimental data: patent US20020031795A1, “Nitrocoumarins for detecting all micro-organisms” (priority 1998, published 2002)
“Also recorded” adds a separate entry of the source.

Tests used:
Type in all cases: cell-based
Shigella sonnei = test: Reduction of the indicator by wild Enterobacteriaceae strain (fluorescence); conditions: 0.17 mmol/l
Description: (§1) The E. coli was grown for 24 hours at 35° C. on Columbia agar supplemented with sheep blood. The bacteria were then resuspended in sterile, distilled water and their density was adjusted to 0.5 on the MacFarland scale (i.e. about 10^8 cells/ml). This suspension was then diluted 100-fold in sterile Mueller-Hinton broth (i.e. to a final density of about 10^6 cells/ml).
(§2) Fifty microliters of each nitrocoumarin solution plus 50 μl of bacterial suspension were then added to the wells of a microtiter plate. The plates were incubated at 35° C. and the optical density and fluorescence of each well was read every 30 min for a total of 4 hours. Optical density (690 nm) readings were made using an Anthos 2001 spectrophotometer (Labtech International Limited), and fluorescence (excitation at 365 nm and emission at 440 nm) readings were made on a Biolite F1 2001 fluorometer (Labtech International Limited).
(§3) This experiment was designed to investigate whether or not it would be possible to detect Enterobacteriaceae other than E. coli using 7-nitrocoumarin-3-carboxylic acid. The conditions for this experiment were similar to those described for the first experiment (section A).
(§4) Five wild strains belonging to the species Citrobacter diversus, Enterobacter agglomerans, Hafnia alvei, Morganella morganii and Shigella sonnei were tested

Citrobacter diversus = test: as above; conditions: 0.17 mmol/l
Description: as §1, §2, §3, §4

[1] = test system: Escherichia coli (NCTC 10418); test: Growth of E. coli in Mueller-Hinton broth in the presence of nitrocoumarins (optical density 690 nm)
Description: A sample of the 7-nitrocoumarin derivative is dissolved in 4 ml of hot, distilled water. The mass dissolved to make the stock solution is such that the final concentration of the compound in the assay is 0.105 mmol/l. This solution is added to 96 ml of Mueller-Hinton broth and the mixture is sterile-filtered.
as §1, §2
The effect of the concentration of 7-nitrocoumarin-3-carboxylic acid on the sensitivity of the assay to detect E. coli (NCTC strain 10418) was investigated at concentrations of the indicator ranging from 0 to 0.262 mmol/l. All other conditions were identical to those described in section A above.

Structure (SMILES): O=C(O)c1cc2ccc([N+](=O)[O-])cc2oc1=O [7-nitrocoumarin-3-carboxylic acid]
- Fluorescent signal (Shigella sonnei; 0 min): 0
- Fluorescent signal (Shigella sonnei; 30 min): −9
- Fluorescent signal (Shigella sonnei; 60 min): 15
- Fluorescent signal (Shigella sonnei; 90 min): 52
- Fluorescent signal (Shigella sonnei; 120 min): 162
- Fluorescent signal (Shigella sonnei; 150 min): 434
- Fluorescent signal (Shigella sonnei; 180 min): 1108
- Fluorescent signal (Shigella sonnei; 210 min): 3095
- Fluorescent signal (Shigella sonnei; 240 min): 8567
- Fluorescent signal (Citrobacter diversus; 0 min): 0
- Fluorescent signal (Citrobacter diversus; 30 min): 3
- Fluorescent signal (Citrobacter diversus; 60 min): 3
- Fluorescent signal (Citrobacter diversus; 90 min): 34
- Fluorescent signal (Citrobacter diversus; 120 min): 92
- Fluorescent signal (Citrobacter diversus; 150 min): 281
- Fluorescent signal (Citrobacter diversus; 180 min): 546
- Fluorescent signal (Citrobacter diversus; 210 min): 1209
- Fluorescent signal (Citrobacter diversus; 240 min): 5393
- Optical density (690 nm) ([1]; 0.005 mmol/l, 0 min): 0.000
- Optical density (690 nm) ([1]; 0.005 mmol/l, 30 min): 0.000
- Optical density (690 nm) ([1]; 0.005 mmol/l, 60 min): 0.003
- Optical density (690 nm) ([1]; 0.005 mmol/l, 90 min): 0.011
- Optical density (690 nm) ([1]; 0.005 mmol/l, 120 min): 0.034
- Optical density (690 nm) ([1]; 0.005 mmol/l, 150 min): 0.090
- Optical density (690 nm) ([1]; 0.005 mmol/l, 180 min): 0.155
- Optical density (690 nm) ([1]; 0.005 mmol/l, 210 min): 0.246
- Optical density (690 nm) ([1]; 0.005 mmol/l, 240 min): 0.411
- Optical density (690 nm) ([1]; 0.013 mmol/l, 0 min): 0.000
- Optical density (690 nm) ([1]; 0.013 mmol/l, 30 min): 0.000
- Optical density (690 nm) ([1]; 0.013 mmol/l, 60 min): 0.003
- Optical density (690 nm) ([1]; 0.013 mmol/l, 90 min): 0.011
- Optical density (690 nm) ([1]; 0.013 mmol/l, 120 min): 0.032
- Optical density (690 nm) ([1]; 0.013 mmol/l, 150 min): 0.088
- Optical density (690 nm) ([1]; 0.013 mmol/l, 180 min): 0.149
- Optical density (690 nm) ([1]; 0.013 mmol/l, 210 min): 0.233
- Optical density (690 nm) ([1]; 0.013 mmol/l, 240 min): 0.371
- Optical density (690 nm) ([1]; 0.026 mmol/l, 0 min): 0.000
- Optical density (690 nm) ([1]; 0.026 mmol/l, 30 min): 0.001
- Optical density (690 nm) ([1]; 0.026 mmol/l, 60 min): 0.004
- Optical density (690 nm) ([1]; 0.026 mmol/l, 90 min): 0.011
- Optical density (690 nm) ([1]; 0.026 mmol/l, 120 min): 0.032
- Optical density (690 nm) ([1]; 0.026 mmol/l, 150 min): 0.079
- Optical density (690 nm) ([1]; 0.026 mmol/l, 180 min): 0.201
- Optical density (690 nm) ([1]; 0.026 mmol/l, 210 min): 0.290
- Optical density (690 nm) ([1]; 0.026 mmol/l, 240 min): 0.436
- Optical density (690 nm) ([1]; 0.052 mmol/l, 0 min): 0.000
- Optical density (690 nm) ([1]; 0.052 mmol/l, 30 min): 0.001
- Optical density (690 nm) ([1]; 0.052 mmol/l, 60 min): 0.003
- Optical density (690 nm) ([1]; 0.052 mmol/l, 90 min): 0.011
- Optical density (690 nm) ([1]; 0.052 mmol/l, 120 min): 0.031
- Optical density (690 nm) ([1]; 0.052 mmol/l, 150 min): 0.082
- Optical density (690 nm) ([1]; 0.052 mmol/l, 180 min): 0.153
- Optical density (690 nm) ([1]; 0.052 mmol/l, 210 min): 0.225
- Optical density (690 nm) ([1]; 0.052 mmol/l, 240 min): 0.408
- Inhibitory effect on the growth of E. coli (in words) ([1]; 0.105 mmol/l): no retarded growth; also recorded: does not inhibit E. coli growth
- Optical density (690 nm) ([1]; 0.105 mmol/l, 0 min): 0.000
- Optical density (690 nm) ([1]; 0.105 mmol/l, 30 min): 0.000
- Optical density (690 nm) ([1]; 0.105 mmol/l, 60 min): 0.002
- Optical density (690 nm) ([1]; 0.105 mmol/l, 90 min): 0.008
- Optical density (690 nm) ([1]; 0.105 mmol/l, 120 min): 0.026
- Optical density (690 nm) ([1]; 0.105 mmol/l, 150 min): 0.068
- Optical density (690 nm) ([1]; 0.105 mmol/l, 180 min): 0.164
- Optical density (690 nm) ([1]; 0.105 mmol/l, 210 min): 0.227
- Optical density (690 nm) ([1]; 0.105 mmol/l, 240 min): 0.416
- Optical density (690 nm) ([1]; 0.157 mmol/l, 0 min): 0.000
- Optical density (690 nm) ([1]; 0.157 mmol/l, 30 min): −0.001
- Optical density (690 nm) ([1]; 0.157 mmol/l, 60 min): 0.002
- Optical density (690 nm) ([1]; 0.157 mmol/l, 90 min): 0.009
- Optical density (690 nm) ([1]; 0.157 mmol/l, 120 min): 0.027
- Optical density (690 nm) ([1]; 0.157 mmol/l, 150 min): 0.073
- Optical density (690 nm) ([1]; 0.157 mmol/l, 180 min): 0.151
- Optical density (690 nm) ([1]; 0.157 mmol/l, 210 min): 0205
- Optical density (690 nm) ([1]; 0.157 mmol/l, 240 min): 0.372
- Optical density (690 nm) ([1]; 0.210 mmol/l, 0 min): 0.000
- Optical density (690 nm) ([1]; 0.210 mmol/l, 30 min): 0.000
- Optical density (690 nm) ([1]; 0.210 mmol/l, 60 min): 0.003
- Optical density (690 nm) ([1]; 0.210 mmol/l, 90 min): 0.010
- Optical density (690 nm) ([1]; 0.210 mmol/l, 120 min): 0.027
- Optical density (690 nm) ([1]; 0.210 mmol/l, 150 min): 0.072
- Optical density (690 nm) ([1]; 0.210 mmol/l, 180 min): 0.138
- Optical density (690 nm) ([1]; 0.210 mmol/l, 210 min): 0.187
- Optical density (690 nm) ([1]; 0.210 mmol/l, 240 min): 0.346
- Optical density (690 nm) ([1]; 0.262 mmol/l, 0 min): 0.000
- Optical density (690 nm) ([1]; 0.262 mmol/l, 30 min): 0.000
- Optical density (690 nm) ([1]; 0.262 mmol/l, 60 min): 0.002
- Optical density (690 nm) ([1]; 0.262 mmol/l, 90 min): 0.009
- Optical density (690 nm) ([1]; 0.262 mmol/l, 120 min): 0.027
- Optical density (690 nm) ([1]; 0.262 mmol/l, 150 min): 0.069
- Optical density (690 nm) ([1]; 0.262 mmol/l, 180 min): 0.144
- Optical density (690 nm) ([1]; 0.262 mmol/l, 240 min): 0.346
- Effect of the concentration on E. coli growth (in words) ([1]; concentrations from 0 to 0.262 mmol/l): no significant effect
